#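 Five concentrations, 48 hours, 96-well plates. Here, GI50 denotes the concentration required for 50% inhibition of growth.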 Calls of active or inactive are those of the source. Cut-off read from the data, not from the text of the source: active = GI50 up to about 1.1 µM and inactive = higher.
# Legend:
# Assay in all cases: inhibition of tumour cell growth, NCI panel, 48 h
# SR = test system: SR
# MCF7 = test system: MCF7
# SNB-75 = test system: SNB-75
# NCI-H23 = test system: NCI-H23
# OVCAR-4 = test system: OVCAR-4
# SK-MEL-28 = test system: SK-MEL-28
# BT-549 = test system: BT-549
# SK-MEL-5 = test system: SK-MEL-5
# SK-OV-3 = test system: SK-OV-3
# MDA-MB-231 = test system: MDA-MB-231
# UACC-257 = test system: UACC-257
# PC-3 = test system: PC-3
# NCI-H522 = test system: NCI-H522
# OVCAR-3 = test system: OVCAR-3
# RPMI-8226 = test system: RPMI-8226
# MOLT-4 = test system: MOLT-4
# HCT-116 = test system: HCT-116
# K562 = test system: K562
# HL-60 = test system: HL-60
# A498 = test system: A498
# CAKI-1 = test system: CAKI-1
# MDA-MB-435 = test system: MDA-MB-435
# EKVX = test system: EKVX
# TK-10 = test system: TK-10
# UACC-62 = test system: UACC-62
# OVCAR-8 = test system: OVCAR-8
# NCI-H460 = test system: NCI-H460
# 786-0 = test system: 786-0
# HCT-15 = test system: HCT-15
# IGROV-1 = test system: IGROV-1
# UO-31 = test system: UO-31
# U-251 = test system: U-251
# MDA-N = test system: MDA-N
# COLO 205 = test system: COLO 205
# LOX IMVI = test system: LOX IMVI
# SF-295 = test system: SF-295
# KM12 = test system: KM12
# NCI/ADR-RES = test system: NCI/ADR-RES
# SF-539 = test system: SF-539
# ACHN = test system: ACHN
# RXF 393 = test system: RXF 393
# A549 = test system: A549
# M14 = test system: M14
# HCC 2998 = test system: HCC 2998
# HOP-92 = test system: HOP-92
# SN12C = test system: SN12C
# SW-620 = test system: SW-620
# CCRF-CEM = test system: CCRF-CEM
# SK-MEL-2 = test system: SK-MEL-2
# Malme-3M = test system: Malme-3M
# DU-145 = test system: DU-145
# SNB-19 = test system: SNB-19
# OVCAR-5 = test system: OVCAR-5
# NCI-H226 = test system: NCI-H226
# HOP-62 = test system: HOP-62
# SF-268 = test system: SF-268
# Hs-578T = test system: Hs-578T
# HT-29 = test system: HT-29
# T47D = test system: T47D
compound,measurement,setting,value
c1ccc(C(NCC2CCO2)(c2ccccc2)c2ccccc2)cc1 (centres undefined),GI50,SR,36.3 µM (inactive)
same,GI50,MCF7,16.8 µM (inactive)
same,GI50,SNB-75,15.2 µM (inactive)
same,GI50,NCI-H23,16.3 µM (inactive)
same,GI50,OVCAR-4,16.2 µM (inactive)
same,GI50,SK-MEL-28,28.6 µM (inactive)
same,GI50,BT-549,22.3 µM (inactive)
same,GI50,SK-MEL-5,25.6 µM (inactive)
same,GI50,SK-OV-3,19.7 µM (inactive)
same,GI50,MDA-MB-231,28.3 µM (inactive)
same,GI50,UACC-257,19.4 µM (inactive)
same,GI50,PC-3,15.8 µM (inactive)
same,GI50,NCI-H522,13.5 µM (inactive)
same,GI50,OVCAR-3,18.5 µM (inactive)
same,GI50,RPMI-8226,30.5 µM (inactive)
same,GI50,MOLT-4,30.2 µM (inactive)
same,GI50,HCT-116,21.5 µM (inactive)
same,GI50,K562,34.1 µM (inactive)
same,GI50,HL-60,19.3 µM (inactive)
same,GI50,A498,19.2 µM (inactive)
same,GI50,CAKI-1,23.9 µM (inactive)
same,GI50,MDA-MB-435,21.1 µM (inactive)
same,GI50,EKVX,16.2 µM (inactive)
same,GI50,TK-10,13.8 µM (inactive)
same,GI50,UACC-62,14.7 µM (inactive)
same,GI50,OVCAR-8,12.6 µM (inactive)
same,GI50,NCI-H460,16.4 µM (inactive)
same,GI50,786-0,20 µM (inactive)
same,GI50,HCT-15,16.4 µM
same,GI50,IGROV-1,15.2 µM (inactive)
same,GI50,UO-31,12.8 µM (inactive)
same,GI50,U-251,23 µM (inactive)
same,GI50,MDA-N,24.3 µM (inactive)
same,GI50,COLO 205,39.1 µM (inactive)
same,GI50,LOX IMVI,28.6 µM (inactive)
same,GI50,SF-295,15.1 µM (inactive)
same,GI50,KM12,15 µM (inactive)
same,GI50,NCI/ADR-RES,14.1 µM (inactive)
same,GI50,SF-539,17.8 µM (inactive)
same,GI50,ACHN,15.7 µM (inactive)
same,GI50,RXF 393,18.2 µM (inactive)
same,GI50,A549,15.2 µM (inactive)
same,GI50,M14,17.1 µM (inactive)
same,GI50,HCC 2998,16.9 µM (inactive)
same,GI50,HOP-92,13.9 µM (inactive)
same,GI50,SN12C,22.8 µM (inactive)
same,GI50,SW-620,19.3 µM (inactive)
same,GI50,CCRF-CEM,33.3 µM (inactive)
same,GI50,SK-MEL-2,21.1 µM (inactive)
same,GI50,Malme-3M,18.7 µM (inactive)
same,GI50,DU-145,27.7 µM (inactive)
same,GI50,SNB-19,13.7 µM (inactive)
same,GI50,OVCAR-5,15.7 µM (inactive)
same,GI50,NCI-H226,11.3 µM (inactive)
CC(=O)/N=C1\NC(=O)/C(=C/c2ccc(Cl)cc2Cl)N1C,GI50,MCF7,> 100 µM (inactive)
same,GI50,SNB-75,58.1 µM (inactive)
same,GI50,HOP-62,41.8 µM (inactive)
same,GI50,NCI-H23,> 100 µM (inactive)
same,GI50,OVCAR-4,55.1 µM (inactive)
same,GI50,BT-549,87.7 µM (inactive)
same,GI50,SK-MEL-5,35.7 µM (inactive)
same,GI50,SK-OV-3,> 100 µM (inactive)
same,GI50,MDA-MB-231,74.6 µM (inactive)
same,GI50,UACC-257,> 100 µM (inactive)
same,GI50,PC-3,> 100 µM (inactive)
same,GI50,NCI-H522,> 100 µM (inactive)
same,GI50,OVCAR-3,96.4 µM (inactive)
same,GI50,MOLT-4,7.76 µM (inactive)
same,GI50,SF-268,56.6 µM (inactive)
same,GI50,HCT-116,30.8 µM (inactive)
same,GI50,HL-60,0.277 µM (active)
same,GI50,Hs-578T,23.1 µM (inactive)
same,GI50,CAKI-1,> 100 µM (inactive)
same,GI50,MDA-MB-435,97.5 µM (inactive)
same,GI50,EKVX,1.02 µM (active)
same,GI50,TK-10,> 100 µM (inactive)
same,GI50,UACC-62,9.04 µM (inactive)
same,GI50,OVCAR-8,31.6 µM (inactive)
same,GI50,HT-29,52 µM (inactive)
same,GI50,NCI-H460,35.2 µM (inactive)
same,GI50,786-0,56.4 µM (inactive)
same,GI50,HCT-15,27.9 µM
same,GI50,IGROV-1,32.6 µM (inactive)
same,GI50,UO-31,> 100 µM (inactive)
same,GI50,U-251,19.5 µM (inactive)
same,GI50,MDA-N,> 100 µM (inactive)
same,GI50,COLO 205,> 100 µM (inactive)
same,GI50,LOX IMVI,17.6 µM (inactive)
same,GI50,SF-295,96.2 µM (inactive)
same,GI50,KM12,> 100 µM (inactive)
same,GI50,NCI/ADR-RES,21.7 µM (inactive)
same,GI50,SF-539,77.4 µM (inactive)
same,GI50,ACHN,> 100 µM (inactive)
same,GI50,RXF 393,75 µM (inactive)
same,GI50,A549,> 100 µM (inactive)
same,GI50,M14,95.3 µM (inactive)
same,GI50,HCC 2998,> 100 µM (inactive)
same,GI50,HOP-92,83.8 µM (inactive)
same,GI50,SW-620,80.9 µM (inactive)
same,GI50,CCRF-CEM,3.44 µM (inactive)
same,GI50,SK-MEL-2,> 100 µM (inactive)
same,GI50,DU-145,60.4 µM (inactive)
same,GI50,SNB-19,47.6 µM (inactive)
same,GI50,OVCAR-5,> 100 µM (inactive)
same,GI50,NCI-H226,6.81 µM (inactive)
OCC1NC(COC2OC(CO)C(O)C(O)C2O)C(O)C(O)C1O (centres undefined),GI50,SR,> 100 µM (inactive)
same,GI50,MCF7,> 100 µM (inactive)
same,GI50,SNB-75,> 100 µM (inactive)
same,GI50,NCI-H23,> 100 µM (inactive)
same,GI50,OVCAR-4,> 100 µM (inactive)
same,GI50,SK-MEL-28,> 100 µM (inactive)
same,GI50,BT-549,> 100 µM (inactive)
same,GI50,SK-MEL-5,> 100 µM (inactive)
same,GI50,MDA-MB-231,> 100 µM (inactive)
same,GI50,UACC-257,> 100 µM (inactive)
same,GI50,PC-3,> 100 µM (inactive)
same,GI50,NCI-H522,> 100 µM (inactive)
same,GI50,OVCAR-3,> 100 µM (inactive)
same,GI50,RPMI-8226,> 100 µM (inactive)
same,GI50,MOLT-4,> 100 µM (inactive)
same,GI50,SF-268,> 100 µM (inactive)
same,GI50,HCT-116,> 100 µM (inactive)
same,GI50,K562,> 100 µM (inactive)
same,GI50,HL-60,> 100 µM (inactive)
same,GI50,A498,> 100 µM (inactive)
same,GI50,CAKI-1,> 100 µM (inactive)
same,GI50,MDA-MB-435,> 100 µM (inactive)
same,GI50,TK-10,> 100 µM (inactive)
same,GI50,UACC-62,> 100 µM (inactive)
same,GI50,OVCAR-8,> 100 µM (inactive)
same,GI50,HT-29,> 100 µM (inactive)
same,GI50,NCI-H460,> 100 µM (inactive)
same,GI50,786-0,> 100 µM (inactive)
same,GI50,HCT-15,> 100 µM
same,GI50,IGROV-1,> 100 µM (inactive)
same,GI50,T47D,> 100 µM (inactive)
same,GI50,UO-31,> 100 µM (inactive)
same,GI50,U-251,> 100 µM (inactive)
same,GI50,MDA-N,> 100 µM (inactive)
same,GI50,COLO 205,> 100 µM (inactive)
same,GI50,SF-295,> 100 µM (inactive)
same,GI50,KM12,> 100 µM (inactive)
same,GI50,NCI/ADR-RES,> 100 µM (inactive)
same,GI50,SF-539,> 100 µM (inactive)
same,GI50,ACHN,> 100 µM (inactive)
same,GI50,RXF 393,> 100 µM (inactive)
same,GI50,A549,> 100 µM (inactive)
same,GI50,M14,> 100 µM (inactive)
same,GI50,HCC 2998,> 100 µM (inactive)
same,GI50,HOP-92,> 100 µM (inactive)
same,GI50,SN12C,> 100 µM (inactive)
same,GI50,SW-620,> 100 µM (inactive)
same,GI50,CCRF-CEM,> 100 µM (inactive)
same,GI50,SK-MEL-2,> 100 µM (inactive)
same,GI50,Malme-3M,> 100 µM (inactive)
same,GI50,DU-145,> 100 µM (inactive)
same,GI50,SNB-19,> 100 µM (inactive)
same,GI50,OVCAR-5,> 100 µM (inactive)
same,GI50,NCI-H226,> 100 µM (inactive)
